{"source": "ChEMBL document CHEMBL5212743", "about": "“Selectivity Literature for EUbOPEN Chemogenomics Library wave 3” (2023)", "key": {"[1]": {"molecular_target": "T1, Gamma-aminobutyric acid receptor subunit alpha-1 (Homo sapiens, UniProt P14867)", "T1 sequence (P14867 whole entry)": "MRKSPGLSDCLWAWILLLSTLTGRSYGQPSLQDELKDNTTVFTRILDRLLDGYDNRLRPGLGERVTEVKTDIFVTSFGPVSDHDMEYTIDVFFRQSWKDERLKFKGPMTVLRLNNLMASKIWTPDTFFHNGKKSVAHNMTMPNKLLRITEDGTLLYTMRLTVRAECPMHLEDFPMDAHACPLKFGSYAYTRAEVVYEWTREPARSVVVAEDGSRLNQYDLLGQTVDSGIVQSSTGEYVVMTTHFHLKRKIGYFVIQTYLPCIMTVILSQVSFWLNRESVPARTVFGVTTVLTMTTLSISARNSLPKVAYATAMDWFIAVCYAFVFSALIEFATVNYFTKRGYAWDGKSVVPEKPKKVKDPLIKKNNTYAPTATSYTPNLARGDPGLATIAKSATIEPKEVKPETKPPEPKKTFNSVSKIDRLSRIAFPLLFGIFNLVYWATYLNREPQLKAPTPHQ", "assay": "(§1) Selectivity interaction (GPCR panel (PDSP screen)) EUB0000707a GABRA1"}, "[2]": {"molecular_target": "T1, Gamma-aminobutyric acid receptor subunit alpha-1", "assay": "as §1", "remark": "listed apart in the source"}, "[3]": {"molecular_target": "Hepatocyte growth factor receptor (Homo sapiens) (UniProt P08581)", "sequence (P08581 whole entry)": "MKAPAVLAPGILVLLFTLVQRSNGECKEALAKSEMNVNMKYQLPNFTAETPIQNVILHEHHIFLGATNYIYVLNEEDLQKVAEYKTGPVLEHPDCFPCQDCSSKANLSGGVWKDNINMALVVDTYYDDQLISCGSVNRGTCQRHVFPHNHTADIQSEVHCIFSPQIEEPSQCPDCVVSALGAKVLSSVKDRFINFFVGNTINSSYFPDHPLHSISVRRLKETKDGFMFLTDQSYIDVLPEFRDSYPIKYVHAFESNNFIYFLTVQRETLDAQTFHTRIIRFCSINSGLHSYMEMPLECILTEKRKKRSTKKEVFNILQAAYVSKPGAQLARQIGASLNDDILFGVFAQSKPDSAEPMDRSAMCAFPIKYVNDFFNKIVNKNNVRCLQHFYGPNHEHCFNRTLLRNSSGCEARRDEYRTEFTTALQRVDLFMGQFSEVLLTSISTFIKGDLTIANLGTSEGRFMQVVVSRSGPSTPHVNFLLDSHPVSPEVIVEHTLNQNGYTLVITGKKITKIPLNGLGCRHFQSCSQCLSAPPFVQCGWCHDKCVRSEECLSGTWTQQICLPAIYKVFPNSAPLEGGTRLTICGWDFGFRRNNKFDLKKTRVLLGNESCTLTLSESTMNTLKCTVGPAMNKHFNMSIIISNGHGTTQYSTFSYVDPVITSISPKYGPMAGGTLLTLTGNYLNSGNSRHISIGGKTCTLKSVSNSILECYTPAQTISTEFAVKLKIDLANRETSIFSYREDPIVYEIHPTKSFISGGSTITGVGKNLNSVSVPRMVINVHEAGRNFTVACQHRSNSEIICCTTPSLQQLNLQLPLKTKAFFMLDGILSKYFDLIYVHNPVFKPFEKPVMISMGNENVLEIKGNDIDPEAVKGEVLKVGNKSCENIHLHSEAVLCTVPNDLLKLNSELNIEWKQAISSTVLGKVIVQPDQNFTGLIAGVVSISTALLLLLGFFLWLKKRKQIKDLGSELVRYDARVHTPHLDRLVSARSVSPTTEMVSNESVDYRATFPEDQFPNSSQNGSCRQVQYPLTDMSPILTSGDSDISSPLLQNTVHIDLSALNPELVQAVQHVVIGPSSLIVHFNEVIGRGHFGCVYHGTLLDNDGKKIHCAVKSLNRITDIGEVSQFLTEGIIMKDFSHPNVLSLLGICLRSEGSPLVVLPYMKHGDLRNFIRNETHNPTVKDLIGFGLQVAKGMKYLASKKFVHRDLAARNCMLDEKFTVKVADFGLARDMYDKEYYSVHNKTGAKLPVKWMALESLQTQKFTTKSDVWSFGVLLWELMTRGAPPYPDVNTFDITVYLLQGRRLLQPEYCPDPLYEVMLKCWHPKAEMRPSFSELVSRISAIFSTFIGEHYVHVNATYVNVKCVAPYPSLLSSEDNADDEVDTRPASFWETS", "assay": "(§2) Selectivity interaction (KinomeScan (DiscoverX)) EUB0000707a MET", "details": "at 1 µM"}, "[4]": {"tested_on": "Hepatocyte growth factor receptor (Homo sapiens), P08581 [M1250T]", "assay": "as §2", "details": "at 1 µM"}, "[5]": {"molecular_target": "Phosphatidylinositol 4-kinase beta (Homo sapiens) (UniProt Q9UBF8)", "assay": "Selectivity interaction (KinomeScan (DiscoverX)) EUB0000707a PI4KB", "details": "at 1 µM"}, "[6]": {"molecular_target": "Interleukin-1 receptor-associated kinase 4 (Homo sapiens) (UniProt Q9NWZ3)", "sequence (Q9NWZ3 whole entry)": "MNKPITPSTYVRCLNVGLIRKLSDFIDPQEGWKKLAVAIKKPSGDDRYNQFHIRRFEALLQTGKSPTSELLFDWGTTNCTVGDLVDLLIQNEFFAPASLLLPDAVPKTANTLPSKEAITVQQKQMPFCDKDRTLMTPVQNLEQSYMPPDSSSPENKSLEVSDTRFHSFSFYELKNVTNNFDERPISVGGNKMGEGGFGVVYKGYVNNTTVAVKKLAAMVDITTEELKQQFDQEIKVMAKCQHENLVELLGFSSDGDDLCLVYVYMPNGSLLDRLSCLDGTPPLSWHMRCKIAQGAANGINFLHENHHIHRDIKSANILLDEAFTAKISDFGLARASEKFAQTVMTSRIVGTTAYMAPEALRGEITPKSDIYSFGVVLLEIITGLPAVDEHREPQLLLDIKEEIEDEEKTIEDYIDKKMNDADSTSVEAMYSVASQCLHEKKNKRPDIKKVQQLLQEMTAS", "assay": "Selectivity interaction (KinomeScan (DiscoverX)) EUB0000707a IRAK4", "details": "at 1 µM"}, "[7]": {"molecular_target": "T2, Adenosine receptor A3 (Homo sapiens, UniProt P0DMS8)", "T2 sequence (P0DMS8 whole entry)": "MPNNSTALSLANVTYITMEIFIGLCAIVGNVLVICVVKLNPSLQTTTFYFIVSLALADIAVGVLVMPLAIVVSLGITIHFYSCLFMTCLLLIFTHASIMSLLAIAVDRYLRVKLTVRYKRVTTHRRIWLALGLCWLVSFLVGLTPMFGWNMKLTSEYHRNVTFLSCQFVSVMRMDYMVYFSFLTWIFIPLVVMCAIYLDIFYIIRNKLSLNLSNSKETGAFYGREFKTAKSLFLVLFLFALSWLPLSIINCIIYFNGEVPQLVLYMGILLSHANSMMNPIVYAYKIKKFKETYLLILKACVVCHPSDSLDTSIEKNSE", "assay": "Selectivity interaction (Eurofins-Panlabs radioligand binding assay ) EUB0000307b ADORA3"}, "[8]": {"molecular_target": "Prostaglandin E2 receptor EP4 subtype (Homo sapiens, UniProt P35408)", "assay": "Selectivity interaction (Eurofins-Panlabs radioligand binding assay ) EUB0000307b PTGER4"}, "[9]": {"molecular_target": "Serine/threonine-protein kinase WNK4 (Homo sapiens) (UniProt Q96J92)", "sequence (Q96J92 whole entry)": "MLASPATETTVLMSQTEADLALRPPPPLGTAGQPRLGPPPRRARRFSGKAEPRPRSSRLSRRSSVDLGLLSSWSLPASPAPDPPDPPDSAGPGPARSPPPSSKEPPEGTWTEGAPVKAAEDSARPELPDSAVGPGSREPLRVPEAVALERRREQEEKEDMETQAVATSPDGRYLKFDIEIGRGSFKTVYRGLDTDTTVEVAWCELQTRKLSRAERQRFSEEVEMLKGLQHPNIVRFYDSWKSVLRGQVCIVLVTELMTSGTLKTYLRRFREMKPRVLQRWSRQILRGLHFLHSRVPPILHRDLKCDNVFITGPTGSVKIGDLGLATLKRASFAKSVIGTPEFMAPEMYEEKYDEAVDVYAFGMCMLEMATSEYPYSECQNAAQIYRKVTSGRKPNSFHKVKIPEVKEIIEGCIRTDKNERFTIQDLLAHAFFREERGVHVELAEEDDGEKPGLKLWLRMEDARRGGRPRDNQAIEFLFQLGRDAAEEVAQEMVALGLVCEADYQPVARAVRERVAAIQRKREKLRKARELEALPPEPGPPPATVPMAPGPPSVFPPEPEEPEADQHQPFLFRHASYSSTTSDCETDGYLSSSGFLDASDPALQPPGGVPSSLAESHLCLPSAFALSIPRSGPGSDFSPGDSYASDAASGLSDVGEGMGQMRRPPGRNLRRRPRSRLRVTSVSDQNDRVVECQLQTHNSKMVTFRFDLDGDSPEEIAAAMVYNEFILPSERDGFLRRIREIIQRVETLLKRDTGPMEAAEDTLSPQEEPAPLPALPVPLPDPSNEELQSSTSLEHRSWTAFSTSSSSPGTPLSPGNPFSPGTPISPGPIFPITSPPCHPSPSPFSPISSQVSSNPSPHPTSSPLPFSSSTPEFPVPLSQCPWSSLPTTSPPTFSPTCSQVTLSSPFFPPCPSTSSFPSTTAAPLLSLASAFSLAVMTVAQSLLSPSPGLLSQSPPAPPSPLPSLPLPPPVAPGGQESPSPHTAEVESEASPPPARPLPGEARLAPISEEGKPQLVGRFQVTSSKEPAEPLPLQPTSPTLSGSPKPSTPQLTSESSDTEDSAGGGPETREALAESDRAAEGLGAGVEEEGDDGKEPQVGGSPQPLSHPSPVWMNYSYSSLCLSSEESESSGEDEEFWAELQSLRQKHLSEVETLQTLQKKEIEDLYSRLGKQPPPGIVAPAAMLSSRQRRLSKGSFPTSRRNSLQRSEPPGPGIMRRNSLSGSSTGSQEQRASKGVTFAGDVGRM", "assay": "Selectivity interaction (KinomeScan (DiscoverX)) EUB0000307b WNK4", "details": "at 1 µM"}, "[10]": {"molecular_target": "Epithelial discoidin domain-containing receptor 1 (Homo sapiens, UniProt Q08345)", "assay": "Selectivity interaction (KinomeScan (DiscoverX)) EUB0000307b DDR1", "details": "at 1 µM"}, "[11]": {"molecular_target": "Serine/threonine-protein kinase Chk2 (Homo sapiens, UniProt O96017)", "assay": "Selectivity interaction (KinomeScan (DiscoverX)) EUB0000542a CHEK2", "details": "at 1 µM"}, "[12]": {"molecular_target": "Polyunsaturated fatty acid 5-lipoxygenase (Homo sapiens) (UniProt P09917)", "sequence (P09917 whole entry)": "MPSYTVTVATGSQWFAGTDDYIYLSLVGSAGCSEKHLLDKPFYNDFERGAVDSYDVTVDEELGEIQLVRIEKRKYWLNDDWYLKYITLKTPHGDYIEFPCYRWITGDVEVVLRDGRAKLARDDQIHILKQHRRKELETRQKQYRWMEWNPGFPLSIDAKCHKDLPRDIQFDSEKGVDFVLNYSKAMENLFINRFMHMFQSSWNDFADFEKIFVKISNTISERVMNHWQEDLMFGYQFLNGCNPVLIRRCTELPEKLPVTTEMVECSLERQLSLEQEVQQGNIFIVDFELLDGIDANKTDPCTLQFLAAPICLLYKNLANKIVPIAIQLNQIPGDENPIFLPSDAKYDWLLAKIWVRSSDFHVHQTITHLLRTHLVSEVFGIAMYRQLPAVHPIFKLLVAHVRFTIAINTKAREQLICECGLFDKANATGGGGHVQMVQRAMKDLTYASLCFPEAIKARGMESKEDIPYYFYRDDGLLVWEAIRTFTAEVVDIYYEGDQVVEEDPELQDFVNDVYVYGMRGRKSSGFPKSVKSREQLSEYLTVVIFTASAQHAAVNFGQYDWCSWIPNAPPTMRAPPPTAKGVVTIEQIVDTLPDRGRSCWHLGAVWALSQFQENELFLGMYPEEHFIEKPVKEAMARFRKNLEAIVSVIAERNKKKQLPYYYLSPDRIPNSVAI", "assay": "(§3) Selectivity interaction (Eurofins-Panlabs screen) EUB0000542a ALOX5", "details": "at 10 µM"}, "[13]": {"molecular_target": "Polyunsaturated fatty acid 5-lipoxygenase (Homo sapiens, UniProt P09917)", "sequence (P09917 whole entry)": "as above", "assay": "as §3"}, "[14]": {"molecular_target": "Tyrosine-protein kinase receptor TYRO3 (Homo sapiens) (UniProt Q06418)", "sequence (Q06418 whole entry)": "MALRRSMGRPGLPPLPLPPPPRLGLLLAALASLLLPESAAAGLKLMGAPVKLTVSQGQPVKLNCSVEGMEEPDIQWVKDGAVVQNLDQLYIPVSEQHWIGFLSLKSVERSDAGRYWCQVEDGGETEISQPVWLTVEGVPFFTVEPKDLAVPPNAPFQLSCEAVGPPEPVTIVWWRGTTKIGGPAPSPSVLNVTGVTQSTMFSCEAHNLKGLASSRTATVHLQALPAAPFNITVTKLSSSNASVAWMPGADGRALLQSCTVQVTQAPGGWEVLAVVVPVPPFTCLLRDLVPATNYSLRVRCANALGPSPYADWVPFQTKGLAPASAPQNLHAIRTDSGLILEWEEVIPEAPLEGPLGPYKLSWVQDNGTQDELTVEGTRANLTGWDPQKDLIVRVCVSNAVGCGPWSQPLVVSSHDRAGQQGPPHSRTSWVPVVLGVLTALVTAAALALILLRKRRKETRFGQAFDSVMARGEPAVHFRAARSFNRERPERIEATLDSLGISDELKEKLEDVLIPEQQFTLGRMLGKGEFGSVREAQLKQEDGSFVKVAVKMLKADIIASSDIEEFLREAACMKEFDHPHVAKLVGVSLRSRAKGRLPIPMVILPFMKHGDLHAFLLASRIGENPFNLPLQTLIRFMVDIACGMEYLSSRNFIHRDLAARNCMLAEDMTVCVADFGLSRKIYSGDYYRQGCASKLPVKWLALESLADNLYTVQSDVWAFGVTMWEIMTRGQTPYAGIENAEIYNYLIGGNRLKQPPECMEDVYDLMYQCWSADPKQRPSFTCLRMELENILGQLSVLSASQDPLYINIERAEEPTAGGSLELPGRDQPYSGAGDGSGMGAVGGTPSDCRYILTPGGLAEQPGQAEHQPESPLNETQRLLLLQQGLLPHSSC", "assay": "Selectivity interaction (KinomeScan (DiscoverX)) EUB0000542a TYRO3", "details": "at 1 µM"}, "[15]": {"molecular_target": "Tyrosine-protein kinase JAK1 (Homo sapiens, UniProt P23458)", "assay": "Selectivity interaction (KinomeScan (DiscoverX)) EUB0000542a JAK1@kinase 2", "details": "at 1 µM"}, "[16]": {"molecular_target": "Thromboxane-A synthase (Homo sapiens) (UniProt P24557)", "assay": "(§4) Selectivity interaction (Eurofins-Panlabs screen) EUB0000542a CYP5A1", "details": "at 10 µM"}, "[17]": {"molecular_target": "Thromboxane-A synthase (Homo sapiens, UniProt P24557)", "assay": "as §4"}}}
{"smiles": "CC1=C(C#N)C(c2ccc3c(c2)c(NC(=O)c2ccccc2C)nn3C)C(C#N)=C(C)N1", "note": "[BAY-974]", "values": [{"measurement": "Ki", "setting": "[1]", "value": 21, "unit": "nM"}, {"measurement": "Ki", "setting": "[2]", "value": 21, "unit": "nM"}, {"measurement": "% of control", "setting": "[3]", "value": 24, "unit": "%"}, {"measurement": "% of control", "setting": "[4]", "value": 27, "unit": "%"}, {"measurement": "% of control", "setting": "[5]", "value": 30, "unit": "%"}, {"measurement": "% of control", "setting": "[6]", "value": 7.5, "unit": "%"}]}
{"smiles": "Cc1c(NC(=O)c2cc(C(N)=O)nc3cc(F)ccc23)c(C(F)(F)F)nn1Cc1ccc(C#N)cc1", "note": "[BAY-876]", "values": [{"measurement": "IC50", "setting": "[7]", "value": 1140, "unit": "nM"}, {"measurement": "IC50", "setting": "[8]", "value": 1120, "unit": "nM"}, {"measurement": "% of control", "setting": "[9]", "value": 0, "unit": "%"}, {"measurement": "% of control", "setting": "[10]", "value": 1.5, "unit": "%"}]}
{"smiles": "CCOCCn1cc(C(=O)Nc2ccc(-n3nc(-c4cccnc4)cc3C(F)(F)F)cn2)ccc1=O", "note": "[BI 1935]", "values": [{"measurement": "% of control", "setting": "[11]", "value": 0, "unit": "%"}, {"measurement": "% of inhibition", "setting": "[12]", "value": 66, "unit": "%"}, {"measurement": "IC50", "setting": "[13]", "value": 5920, "unit": "nM"}, {"measurement": "% of control", "setting": "[14]", "value": 0, "unit": "%"}, {"measurement": "% of control", "setting": "[15]", "value": 37, "unit": "%"}, {"measurement": "% of inhibition", "setting": "[16]", "value": 96, "unit": "%"}, {"measurement": "IC50", "setting": "[17]", "value": 132, "unit": "nM"}]}
